In US10004826B2, “Implantable human liver tissue constructs and uses thereof” (Massachusetts Institute of Technology, priority 2010, dated 2018):

What was measured:
[1] = system: human CYP2D6; assay: Debrisoquine metabolism and pharmacokinetics in humanized C57/BL6 mice; conditions: debrisoquine 2 mg/kg oral gavage
Description: Humanized mice established on a C57/Bl6 mouse background were administered debrisoquine at 2 mg/kg by oral gavage. Following drug administration, mice were bled by retro-orbital draw at specific timepoints, and drug concentration quantified by LC/MS/MS. […] Error bars are SEM for n=3 mice per group.
(§2) Mice administered 80 mg/kg of coumarin injected i.p. or 2 mg/kg debrisoquine (DB) gavaged p.o were subjected to retro-orbital draw at 5, 10 15, 30, 60, 90, and 120 minutes after drug administration, and terminal urine collection at 4 h. From ˜100 ml blood collections, serum was separated by centrifugation at 1200 g for 10 minutes and stored at −20° C. […] The area under the curve from time 0 until the time of the last measurable plasma concentration (AUC0-t) was calculated using the linear trapezoidal. Peak concentration (Cmax) and time to reach maximum concentration (tmax) values were obtained directly from the plasma concentration-time profile. Metabolic ratios were determined by dividing the AUC0-t of metabolite by the AUC0-t of the parent drug.
(§3) Following coumarin or debrisoquine exposure, serum or urine was sampled for quantitation of drug parent and metabolite concentrations by liquid chromatography (LC)/MS/MS.

[2] = target: T1, human CYP2A6 (Homo sapiens, UniProt P11509); conditions: athymic nude, mouse, in vivo, ip, 80 mg/kg
T1 sequence (P11509 1-494): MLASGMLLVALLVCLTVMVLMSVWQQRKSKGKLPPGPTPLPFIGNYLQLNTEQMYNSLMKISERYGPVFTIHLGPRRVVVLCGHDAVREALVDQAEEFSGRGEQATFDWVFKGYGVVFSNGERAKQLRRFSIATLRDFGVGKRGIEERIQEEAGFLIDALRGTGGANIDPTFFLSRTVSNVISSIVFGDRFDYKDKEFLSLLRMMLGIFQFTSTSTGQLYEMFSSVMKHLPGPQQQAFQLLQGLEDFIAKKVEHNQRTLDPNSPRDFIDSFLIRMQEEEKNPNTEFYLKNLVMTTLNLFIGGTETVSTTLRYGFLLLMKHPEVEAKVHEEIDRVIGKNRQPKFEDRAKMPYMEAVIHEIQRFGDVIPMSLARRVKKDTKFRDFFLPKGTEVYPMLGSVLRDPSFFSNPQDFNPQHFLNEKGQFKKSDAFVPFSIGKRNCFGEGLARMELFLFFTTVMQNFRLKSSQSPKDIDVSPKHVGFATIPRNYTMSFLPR
Description: Humanized mice established on a nude mouse background were administered coumarin at 80 mg/kg by intraperitoneal injection. Following drug administration, mice were bled by retro-orbital draw at specific timepoints, and drug concentration quantified by LC/MS/MS. Open circles represent humanized mice, and closed circles represent wild-type (no implant) mice. Error bars are SEM for n=3 mice per group.
as §2, §3

[3] = system: Mouse livers; conditions: in vivo
Description: Serum samples acquired at 4 h following APAP exposure were assayed for the liver damage marker alanine transaminase (ALT) using an endpoint colorimetric enzymatic assay.
Serum samples acquired at 4 h following APAP exposure were assayed for the liver damage markers aspartame transaminase (AST) using an endpoint colorimetric enzymatic assay. Shown are individual data points for n=3 mice per group, where black bars represent average values for each group.
Explanted livers were sectioned and stained with H&E. Shown are representative sections.
At day 9 of implantation, mice were fed by oral gavage with 500 ml drinking water or 500 ml acetaminophen (APAP, 250 mg/kg) in water. Mice were fasted for 16 h prior to APAP administration. Following APAP exposure, blood was collected by retro-orbital draw at 4 h. Blood samples were acquired by retro-orbital draw at 4 h following APAP exposure, serum separated, and serum analyzed for enzymatic activity of alanine transaminase (ALT) and aspartame transaminase (AST), non-species specific markers of liver damage (Teco Diagnostics). Engineered liver mimetics and mouse livers were extracted for biochemical and histological analysis. Mouse livers were paraffin-embedded, sectioned with 5 um slices, de-paraffinized and stained for hematoxylin and eosin (H&E).

[4] = system: hepatitis C virus; conditions: uPA+/+/SCID model; cited from earlier work
[5] = system: human liver mimetics; assay: Human hepatotoxicity in humanized mice by serum human albumin ELISA; type: in vivo, mouse; conditions: inducers daily at days 4-7 post-implantation; OME oral gavage, RIF i.p.; blood days 2, 5, 7
Excerpt: Error bars are SEM for n=3 or greater.
Blood was collected by retro-orbital draw on days 2, 5 and 7 days after implantation for drug-treated mice and control mice with acellular hydrogel intraperitoneal implantations. Red bars mark average human serum albumin levels at each timepoint for n=3-6 mice per condition.
(§1) Human albumin in serum or media samples was quantified by enzyme-linked immunosorbant assay performed using goat anti-human albumin antibody, horseradish peroxidase detection, and 3,3′,5,5′-tetramethylbenzidine development. Urea was measured by acid- and heat-catalyzed detection of diacetylmonoxime conversion to a colorimetric product. Alanine aminotransfer (ALT) and aspartate aminotransfer (AST) enzymatic levels were detected with clinical kits based on colorimetric endpoint methods.

[6] = system: luciferase-expressing Plasmodium berghei (Pb-luc); conditions: Huh7.5 and HC04 hepatoma cells in alginate
Description: Primary adult human hepatocytes and J2 stromal fibroblasts were seeded in lyophilized alginate sponges and infected with luciferase-expressing Plasmodium berghei (Pb-luc) three days post-seeding. Bioluminescence imaging was performed two days post-infection (FIG. 11a).
Next, the response of Pb-luc-infected hepatoma aggregates in alginate to primaquine treatment was tested.

[7] = system: encapsulated human hepatocytes; assay: Albumin secretion and urea synthesis of HEP/FIB encapsulated in peptide-derivatized PEG-DA hydrogel; type: cell-based; conditions: 10 μmol/ml peptide; vs RGES controls; one week in vitro
Description: Liver mimetics were fabricated using a hydrogel polymerization apparatus. In brief, cellular pre-polymer solution was loaded into a 20-mm diameter, […] silicone spacer, and the solution exposed to UV light from a spot curing system with collimating lens (320-390 nm, 10 mW/cm^2, 20-30 s; EXFO Lite). […] Acrylate-PEG-peptide monomers were synthesized by conjugating RGDS or RGES to acrylate-PEG-N-hydroxysuccinimide (3.4 kDa) at a 1:1 molar ratio in 50 mM sodium bicarbonate buffer (pH 8.5). Reactions were dialyzed overnight against […] MWCO cellulose ester membrane and lyophilized for long-term storage at −80° C. Hepatocyte/fibroblast co-cultures were encapsulated at a final concentration of 8×10^6 hepatocytes/ml pre-polymer, in the absence or presence of an additional 6×10^6 liver endothelial cells (LEC)/ml of pre-polymer.
as §1, with “methods. […]” for “methods.”

In the case of N=C(N)N1Cc2ccccc2C(O)C1 (centres unmarked) [4-OHDB, 4-hydroxydebrisoquine], the “Metabolic ratio (metabolite exposure over parent drug exposure, AUC), 4-OHDB/debrisoquine” value [1] was > 0.1.
With O=c1ccc2ccc(O)cc2o1 [7-HC, 7-hydroxycoumarin] the “Metabolic ratio (metabolite exposure over parent drug exposure, AUC), 7-HC/coumarin” value [2] was > 0.1.
In the case of CC(=O)Nc1ccc(O)cc1 [APAP, acetaminophen], the “Mouse liver injury by serum liver function enzyme tests and histopathology” value [3] was “appeared uninjured”.
In the case of COc1ccc2c(O[C@@H]3C[C@H]4C(=O)N[C@]5(C(=O)O)C[C@H]5/C=C\CCCCC[C@H](NC(=O)OC5CCCC5)C(=O)N4C3)cc(-c3csc(NC(C)C)n3)nc2c1 [BILN-2061], the “Response of HCV infection to anti-HCV therapy” value [4] is listed as “responding”.
With COc1ccc2[nH]c([S+]([O-])Cc3ncc(C)c(OC)c3C)nc2c1 (centres unmarked) [OME, omeprazole] the “Human serum albumin from humanized mice over time” value [5] was “not affected”.
With CO[C@H]1/C=C/O[C@@]2(C)Oc3c(C)c(O)c4c(O)c(c(/C=N/N5CCN(C)CC5)c(O)c4c3C2=O)NC(=O)/C(C)=C\C=C\[C@H](C)[C@H](O)[C@@H](C)[C@@H](O)[C@@H](C)[C@H](OC(C)=O)[C@@H]1C [RIF, rifampin] the “Mouse liver injury by serum liver function enzyme tests and histopathology” value [3] was “appeared uninjured”.
With COc1cc(NC(C)CCCN)c2ncccc2c1 (centres unmarked) [primaquine] the “Inhibition of parasite development (BLI quantification)” value [6] was “greater effect on inhibiting parasite development in Huh7.5 than in HC04”.
In the case of RGDS, the “Improvement of encapsulated HEP/FIB synthetic and secretory functions” value [7] was “two- to three-fold”.
